PMC7482817 (Theranostics, 2020)

Key:
[1] = test system: E. coli B2 (mcr-1); test: Broth microdilution MIC and checkerboard assay; type: cell-based, Escherichia coli; details: for MIC of antibiotic in the absence of melatonin: antibiotic alone, MHB; for Potentiation (fold): degree of colistin potentiation in the presence of sub-MIC of melatonin and its analogues: colistin plus sub-MIC of the analogue
[2] = test system: resistant bacteria; test: Potentiation of colistin, summary over resistant strains; type: cell-based; details: in resistant bacteria
[3] = test system: E. coli B2 (mcr-1); test: Membrane depolarization (DiSC3(5)); type: cell-based, Escherichia coli; details: melatonin 0 to 1,000 μg/mL alone, or 500 μg/mL added to colistin; 1 h
Description: (§1) Pretreatments of biochemical assays were performed using similar protocols as follows. Overnight E. coli B2 were washed, suspended in 5 mM HEPES (pH 7.0, plus 5 mM glucose) with an OD600 of 0.5, and incubated with fluorescent dyes for 30 min. […] After incubation at 37 °C for 1 hour, fluorescence intensity or absorbance or luminescence was measured by an Infinite M200 Microplate reader (Tecan).
3, 3-dipropylthiadicarbocyanine iodide (DiSC3(5), 0.5 μM) was applied to determine the membrane potential. Dissipated membrane potential of E. coli B2 was measured with the excitation wavelength of 622 nm and emission wavelength of 670 nm.

[4] = test system: E. coli B2; test: Intracellular SOD activity; details: colistin with or without melatonin 500 μg/mL, or melatonin alone
[5] = test system: HEK293T cells; test: Cytotoxicity, WST-1 assay; type: cell-based, Human; details: colistin 0 to 128 μg/mL with melatonin 0 to 1,000 μg/mL, 24 h
Description: (§3) Cytotoxicity on CHO and HEK293T cells was determined using the water-soluble tetrazolium salt-1 (WST-1, Roche, Switzerland) assay [35].

[6] = test system: E. coli B2; test: Total ROS (DCFH-DA); type: cell-based, Escherichia coli; details: 1 h, colistin with or without melatonin 500 μg/mL, or melatonin alone
Description: as §1
(§2) 2′,7′-dichlorodihydrofluorescein diacetate (DCFH-DA, 10 μM) was applied to monitor levels of ROS in E. coli B2 [38], following the manufacturer's instruction (Beyotime). Fluorescence intensity was measured with the excitation wavelength of 488 nm and emission wavelength of 525 nm. […] After incubation for one hour, the absorbance of lysis buffer at 570 nm was measured.

[7] = test system: mcr-1 expression in E. coli B2; type: cell-based, Escherichia coli; details: melatonin with or without colistin
[8] = test system: CHO cells; test: Cytotoxicity, WST-1 assay; type: cell-based, Chinese Hamster; details: colistin 0 to 128 μg/mL with melatonin 0 to 1,000 μg/mL, 24 h
Description: as §3

[9] = test system: E. coli; test: Colistin intracellular accumulation by LC-MS/MS; type: cell-based, Escherichia coli; details: co-incubation with varying doses of melatonin
[10] = test system: E. coli B2 (mcr-1); test: Mouse peritonitis-sepsis infection model; type: in vivo, BALB/c mice; details: single i.p. dose 1 h post-infection: colistin 10 mg/kg, melatonin 50 mg/kg, or combinations 5 + 50, 10 + 20, 10 + 50 mg/kg; 7 days; n = 8 or 9
Description: 6-8-week-old female BALB/c mice were obtained from Comparative Medicine Centre of Yangzhou University (Jiangsu, China). Mice were adapted for one week prior to infection. Mouse studies were performed in accordance with the relevant guidelines and regulations (ID: SCXK-2017-0007). The laboratory animal usage license number is SCXK-2017-0044, certified by Jiangsu Association for Science and Technology.
Female BALB/c mice (n = 8 or 9 per group) were intraperitoneally infected with a dose of 3.0 × 10^8 CFUs E. coli B2 suspension. […] Survival rates of mice were recorded for 7 days.

[11] = test system: E. coli B2; test: H2O2 production (Hydrogen Peroxide Assay Kit); type: cell-based, Escherichia coli; details: melatonin in single or combination treatment with colistin; 1 h
Description: as §2

[12] = test system: E. coli B2 (mcr-1); test: Time-dependent killing; type: cell-based, Escherichia coli; details: melatonin 1 mg/mL or colistin 2 μg/mL alone, 24 h
Description: Overnight E. coli B2 were diluted 1/1,000 in MHB, and incubated for 4 h (exponential phase) or 8 h (stationary phase) at 37 °C. […] At intervals, 100 μL aliquots were removed, centrifuged and resuspended in 100 μL sterile PBS. Subsequently, ten-fold serially diluted suspensions were plated on MHA plates and incubated overnight at 37 °C. Bacterial colonies were counted and the primary CFUs/mL was calculated.

[13] = test system: thirteen clinical colistin-resistant E. coli from elk
[14] = test system: E. coli ATCC 25922; test: Broth microdilution MIC and checkerboard assay; type: cell-based, Escherichia coli
[15] = test system: K. pneumoniae D120 (mcr-8); test: Broth microdilution MIC and checkerboard assay; type: cell-based
[16] = test system: E. coli CP131 (mcr-3); test: Broth microdilution MIC and checkerboard assay; type: cell-based, Escherichia coli
[17] = test system: E. coli C3; test: Broth microdilution MIC and checkerboard assay; type: cell-based, Escherichia coli
[18] = test system: S. enterica ATCC 13076; test: Broth microdilution MIC and checkerboard assay; type: cell-based
[19] = test system: E. coli G6; test: Broth microdilution MIC and checkerboard assay; type: cell-based, Escherichia coli
[20] = test system: E. coli MG1655 (ΔkatE); test: Broth microdilution MIC and checkerboard assay
[21] = test system: E. coli MG1655; test: Broth microdilution MIC and checkerboard assay; type: cell-based, Escherichia coli
[22] = test system: E. coli G92 (mcr-1); test: Broth microdilution MIC and checkerboard assay; type: cell-based, Escherichia coli
[23] = antibiotic plus sub-MIC melatonin
[24] = antibiotic with melatonin, checkerboard, two biological replicates
[25] = melatonin or analogue with colistin, checkerboard 8 × 8, 18 h, means of two biological replicates, synergy FIC index ≤ 0.5

CC1(C)S[C@@H]2[C@H](NC(=O)[C@H](N)c3ccccc3)C(=O)N2[C@H]1C(=O)O [Ampicillin]
MIC of antibiotic in the absence of melatonin ([1]; 18 h, 37 °C): 128 µg/mL
MIC of antibiotic in the presence of sub-MIC of melatonin [1, 23]: 128 µg/mL
FIC index [1, 24]: 2

NCCc1c[nH]c2ccc(O)cc12 [Analogue 1, Serotonin]
Potentiation (fold): degree of colistin potentiation in the presence of sub-MIC of melatonin and its analogues [1]: 8 fold
FIC index [1, 25]: 0.188

NCCc1c[nH]c2ccccc12 [Analogue 2, Tryptamine]
Potentiation (fold): degree of colistin potentiation in the presence of sub-MIC of melatonin and its analogues [1]: 32 fold
FIC index [1, 25]: 0.156

N[C@@H](Cc1c[nH]c2ccc(O)cc12)C(=O)O [Analogue 3, 5-Hydroxy-L-tryptophan]
Potentiation (fold): degree of colistin potentiation in the presence of sub-MIC of melatonin and its analogues [1]: 2 fold
FIC index [1, 25]: 1

N[C@@H](Cc1c[nH]c2ccccc12)C(=O)O [Analogue 4, L-tryptophan]
Potentiation (fold): degree of colistin potentiation in the presence of sub-MIC of melatonin and its analogues [1]: 1 fold
FIC index [1, 25]: 2

CC(=O)NCCc1c[nH]c2ccc(O)cc12 [Analogue 5, N-acetyl-5-hydroxytryptamine]
Potentiation (fold): degree of colistin potentiation in the presence of sub-MIC of melatonin and its analogues [1]: 32 fold
FIC index [1, 25]: 0.094

COc1ccc2[nH]cc(CCN)c2c1 [Analogue 6, 5-Methoxytryptamine]
Potentiation (fold): degree of colistin potentiation in the presence of sub-MIC of melatonin and its analogues [1]: 32 fold
FIC index [1, 25]: 0.156

c1ccc2[nH]ccc2c1 [Analogue 7, Indole]
Potentiation (fold): degree of colistin potentiation in the presence of sub-MIC of melatonin and its analogues [1]: 8 fold

NCCc1c[nH]cn1 [Analogue 8, Histamine]
FIC index [1, 25]: >4

C[C@H]1c2cccc(O)c2C(=O)C2=C(O)[C@]3(O)C(=O)C(C(N)=O)=C(O)[C@@H](N(C)C)[C@@H]3[C@@H](O)[C@@H]21 [Doxycycline]
MIC of antibiotic in the absence of melatonin ([1]; 18 h, 37 °C): 32 µg/mL
MIC of antibiotic in the presence of sub-MIC of melatonin [1, 23]: 4 µg/mL
Potentiation (fold): degree of antibiotics potentiation in the presence of sub-MIC of melatonin [1, 23]: 8 fold
FIC index [1, 24]: 0.250

COc1ccc2[nH]cc(CCNC(C)=O)c2c1 [Melatonin, N-acetyl-5-methoxytryptamine]
potentiation with colistin [2]: 8 to 32 fold
cytoplasmic membrane potential (DiSC3(5)) [3]: caused dissipation of the cytoplasmic membrane potential
SOD activity [4]: had no direct effect on the total ROS level and SOD activity
effect of melatonin on cytotoxicity of colistin [5]: slightly reduced the cytotoxicity of colistin
total ROS level [6]: had no direct effect on the total ROS level and SOD activity
mcr-1 expression [7]: down-regulated in the presence of melatonin
effect of melatonin on cytotoxicity of colistin [8]: slightly reduced the cytotoxicity of colistin
intracellular colistin accumulation [9]: enhanced colistin in cells in a dose-dependent manner
survival of mice after lethal infection [10]: did not prevent a lethal infection
production of H2O2 [11]: significantly promoted production of H2O2 in a dose-dependent manner
killing of exponentially growing or stationary E. coli B2 by monotreatment [12]: neither melatonin nor colistin monotreatment killed
synergistic activity with colistin [13]: synergistic activity was also evidenced

C[C@@H](O)[C@H]1C(=O)N2C(C(=O)O)=C(S[C@@H]3CN[C@H](C(=O)N(C)C)C3)[C@H](C)[C@H]12 [Meropenem]
MIC of antibiotic in the absence of melatonin ([1]; 18 h, 37 °C): 32 µg/mL
MIC of antibiotic in the presence of sub-MIC of melatonin [1, 23]: 32 µg/mL
FIC index [1, 24]: 2

CO[C@H]1/C=C/O[C@@]2(C)Oc3c(C)c(O)c4c(O)c(c(/C=N/N5CCN(C)CC5)c(O)c4c3C2=O)NC(=O)/C(C)=C\C=C\[C@H](C)[C@H](O)[C@@H](C)[C@@H](O)[C@@H](C)[C@H](OC(C)=O)[C@@H]1C [Rifampicin]
MIC of antibiotic in the absence of melatonin ([1]; 18 h, 37 °C): 128 µg/mL
MIC of antibiotic in the presence of sub-MIC of melatonin [1, 23]: 128 µg/mL
FIC index [1, 24]: 2

Colistin
MIC of colistin in the presence of sub-MIC of melatonin ([14]; E. coli ATCC 25922): 0.125 µg/mL
MIC of colistin in the absence of melatonin ([14]; E. coli ATCC 25922, MCR-negative): 0.5 µg/mL
MIC of antibiotic in the absence of melatonin ([1]; 18 h, 37 °C): 8 µg/mL
MIC of antibiotic in the presence of sub-MIC of melatonin [1, 23]: 0.25 µg/mL
MIC^a of colistin in the absence of melatonin and its analogues ([1]; colistin alone, broth micro-dilution in MHB, 18 h, 37 °C): 8 μg/mL
MIC of colistin in the presence of sub-MIC of melatonin [15]: 0.5 µg/mL
MIC of colistin in the absence of melatonin ([15]; MCR-positive): 4 µg/mL
MIC of colistin in the presence of sub-MIC of melatonin [16]: 0.5 µg/mL
MIC of colistin in the absence of melatonin ([16]; MCR-positive): 4 µg/mL
MIC of colistin in the presence of sub-MIC of melatonin ([17]; E. coli C3): 0.0312 µg/mL
MIC of colistin in the absence of melatonin ([17]; E. coli C3, MCR-negative): 0.125 µg/mL
MIC of colistin in the presence of sub-MIC of melatonin ([18]; S. enterica ATCC 13076): 0.0156 µg/mL
MIC of colistin in the absence of melatonin ([18]; S. enterica ATCC 13076, MCR-negative): 0.125 µg/mL
MIC of colistin in the presence of sub-MIC of melatonin ([19]; E. coli G6): 0.0156 µg/mL
MIC of colistin in the absence of melatonin ([19]; E. coli G6, MCR-negative): 0.125 µg/mL
survival of mice after lethal infection [10]: did not prevent a lethal infection
MIC of colistin in the presence of sub-MIC of melatonin [20]: 0.0078 µg/mL
MIC of colistin in the presence of sub-MIC of melatonin ([21]; E. coli MG1655): 0.0156 µg/mL
MIC of colistin in the absence of melatonin ([21]; E. coli MG1655, MCR-negative): 0.0625 µg/mL
killing of exponentially growing or stationary E. coli B2 by monotreatment [12]: neither melatonin nor colistin monotreatment killed
MIC of colistin in the presence of sub-MIC of melatonin [22]: 0.5 µg/mL
MIC of colistin in the absence of melatonin ([22]; MCR-positive): 4 µg/mL
